Assay results as given in US9751869B2, “LXR modulators” (BRISTOL-MYERS SQUIBB COMPANY, priority 2013, dated 2017).
pEC50: −log10 of the molar value.

Target: T1, LXRβ (Homo sapiens, UniProt P55055)
T1 construct: Co-transfection expression plasmids, comprising full-length LXRα (pCMX-h LXRα or LXRβ (pCMX-hLXRβ)); expressed in transfected cells; host or cells: CV-1 African green monkey kidney cells, transient transfection with pCMX-hLXRβ
T1 sequence (P55055 1-460): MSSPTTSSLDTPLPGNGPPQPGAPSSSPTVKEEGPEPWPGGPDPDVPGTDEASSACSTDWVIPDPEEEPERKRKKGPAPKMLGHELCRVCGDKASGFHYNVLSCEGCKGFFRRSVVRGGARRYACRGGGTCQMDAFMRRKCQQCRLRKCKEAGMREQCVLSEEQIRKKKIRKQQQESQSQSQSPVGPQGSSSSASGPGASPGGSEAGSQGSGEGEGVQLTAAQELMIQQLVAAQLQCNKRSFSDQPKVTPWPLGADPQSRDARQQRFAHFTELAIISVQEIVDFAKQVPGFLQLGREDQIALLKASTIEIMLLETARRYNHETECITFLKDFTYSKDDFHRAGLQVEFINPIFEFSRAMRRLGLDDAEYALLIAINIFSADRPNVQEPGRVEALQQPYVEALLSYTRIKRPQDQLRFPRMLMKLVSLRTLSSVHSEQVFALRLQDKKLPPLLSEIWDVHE
T1 sequence (P19793 1-462 partner): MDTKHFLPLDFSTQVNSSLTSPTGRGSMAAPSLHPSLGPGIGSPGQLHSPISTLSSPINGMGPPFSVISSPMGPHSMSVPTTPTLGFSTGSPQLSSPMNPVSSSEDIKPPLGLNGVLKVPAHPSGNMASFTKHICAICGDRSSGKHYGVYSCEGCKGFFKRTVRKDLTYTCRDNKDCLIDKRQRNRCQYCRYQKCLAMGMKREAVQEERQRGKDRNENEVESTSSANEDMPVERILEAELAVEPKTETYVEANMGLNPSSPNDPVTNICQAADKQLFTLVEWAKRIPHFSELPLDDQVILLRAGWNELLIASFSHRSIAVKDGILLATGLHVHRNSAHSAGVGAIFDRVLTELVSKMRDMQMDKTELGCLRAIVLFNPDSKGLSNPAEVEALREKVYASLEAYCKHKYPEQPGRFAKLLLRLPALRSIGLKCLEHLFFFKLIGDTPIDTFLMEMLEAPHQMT
Assay: LXR/LXRE co-transfection assay (luciferase reporter) in CV-1 cells, LXRβ
Assay type: cell-based
Settings: for pEC50: CV-1 cells transfected with pCMX-hLXRβ and LXREx1-Tk-Luciferase, 20 hours incubation, read-out: LXRbeta agonism EC50; for Emax: CV-1 cells, relative to maximum response of high control N-(3-((4-fluorophenyl)-(naphthalene-2-sulfonyl)amino)propyl)-2,2-dimethylpropionamide, read-out: LXRbeta % EFFICACY
Outline: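 Luciferase read-out after 20 h compound treatment at 37 °C of CV-1 cells carrying transfected hLXRβ plus one-copy LXRE reporter, endogenous RXR partnering. Sigmoidal fit of 10-point half-log curves (4 wells each) gave EC50; % efficacy versus maximal response of the propionamide reference agonist.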

| Structure (SMILES) | pEC50 | Emax |
| --- | --- | --- |
| Cc1nc(-c2ccc(OC(F)(F)F)cc2)c(-c2cc(-c3cc(F)c(CO)c(S(C)(=O)=O)c3)ccc2-n2ccc(C(N)=O)n2)o1 [Example 320, 1-(3′-fluoro-4′-(hydroxymethyl)-3-(2-methyl-4-(4-(trifluoromethoxy)phenyl)oxazol-5-yl)-5′-(methylsulfonyl)biphenyl-4-yl)-1H-pyrazole-3-carboxamide] | 6.33 | 58% |
| Cc1nc(-c2ccc(OC(F)(F)F)cc2)c(-c2cc(-c3cccc(S(C)(=O)=O)c3)ccc2-n2ccc(CO)n2)o1 [Example 321, (1-(3-(2-methyl-4-(4-(trifluoromethoxy)phenyl)oxazol-5-yl)-3′-(methylsulfonyl)biphenyl-4-yl)-1H-pyrazol-3-yl)methanol] | 5.84 | 40% |
| Cc1nc(-c2ccc(OC(F)(F)F)cc2)c(-c2cc(-c3cc(F)c(CO)c(S(C)(=O)=O)c3)ccc2-n2ccc(CO)n2)o1 [Example 322, (3-fluoro-4′-(3-(hydroxymethyl)-1H-pyrazol-1-yl)-3′-(2-methyl-4-(4-(trifluoromethoxy)phenyl)oxazol-5-yl)-5-(methylsulfonyl)biphenyl-4-yl)methanol] | 5.95 | 58% |
| Cc1nc(-c2ccc(OC(F)(F)F)cc2)c(-c2cc(-c3cc(F)c(CO)c(S(C)(=O)=O)c3)ccc2-n2nc(C(F)(F)F)cc2C2CC2)o1 [Example 323, (4′-(5-cyclopropyl-3-(trifluoromethyl)-1H-pyrazol-1-yl)-3-fluoro-3′-(2-methyl-4-(4-(trifluoromethoxy)phenyl)oxazol-5-yl)-5-(methylsulfonyl)biphenyl-4-yl)methanol] | 6.02 | 48% |
| Cc1nc(-c2ccc(OC(F)(F)F)cc2)c(-c2cc(-c3cccc(S(C)(=O)=O)c3)ccc2-n2nc(C(F)(F)F)cc2C2CC2)o1 [Example 324, 5-(4-(5-cyclopropyl-3-(trifluoromethyl)-1H-pyrazol-1-yl)-3′-(methylsulfonyl)biphenyl-3-yl)-2-methyl-4-(4-(trifluoromethoxy)phenyl)oxazole] | 5.91 | 44% |
| Cc1nc(-c2ccc(OC(F)F)cc2)c(-c2cc(-c3cc(F)c(CO)c(S(C)(=O)=O)c3)ccc2-n2nc(C(F)(F)F)cc2C)o1 [Example 325, (3′-(4-(4-(difluoromethoxy)phenyl)-2-methyloxazol-5-yl)-3-fluoro-4′-(5-methyl-3-(trifluoromethyl)-1H-pyrazol-1-yl)-5-(methylsulfonyl)biphenyl-4-yl) methanol] | 7.92 | 78% |
| Cc1nc(-c2ccc(OC(F)F)cc2)c(-c2cc(-c3ccc(CO)c(S(C)(=O)=O)c3)ccc2-n2nc(C(F)(F)F)cc2C)o1 [Example 326, (3′-(4-(4-(difluoromethoxy)phenyl)-2-methyloxazol-5-yl)-4′-(5-methyl-3-(trifluoromethyl)-1H-pyrazol-1-yl)-3-(methylsulfonyl)biphenyl-4-yl)methanol] | 7.82 | 77% |
| Cc1nc(-c2ccc(OC(F)F)cc2)c(-c2cc(-c3cccc(S(C)(=O)=O)c3)ccc2-n2nc(C(F)(F)F)cc2C)o1 [Example 327, 4-(4-(difluoromethoxy)phenyl)-2-methyl-5-(4-(5-methyl-3-(trifluoromethyl)-1H-pyrazol-1-yl)-3′-(methylsulfonyl)biphenyl-3-yl)oxazole] | 7.57 | 78% |
| Cc1nc(-c2ccc3c(c2)OC(F)(F)O3)c(-c2cc(-c3cccc(S(C)(=O)=O)c3)ccc2-n2nc(C(F)(F)F)cc2C)o1 [Example 328, 4-(2,2-difluorobenzo[d][1,3]dioxol-5-yl)-2-methyl-5-(4-(5-methyl-3-(trifluoromethyl)-1H-pyrazol-1-yl)-3′-(methylsulfonyl)biphenyl-3-yl)oxazole] | 7.62 | 112% |
| Cc1nc(-c2ccc3c(c2)OC(F)(F)O3)c(-c2cc(-c3cc(F)c(CO)c(S(C)(=O)=O)c3)ccc2-n2nc(C(F)(F)F)cc2C)o1 [Example 329, (3′-(4-(2,2-difluorobenzo[d][1,3]dioxol-5-yl)-2-methyloxazol-5-yl)-3-fluoro-4′-(5-methyl-3-(trifluoromethyl)-1H-pyrazol-1-yl)-5-(methylsulfonyl)biphenyl-4-yl)methanol] | 8.52 | 92% |
| Cc1nc(-c2ccc3c(c2)OC(F)(F)O3)c(-c2cc(-c3ccc(CO)c(S(C)(=O)=O)c3)ccc2-n2nc(C(F)(F)F)cc2C)o1 [Example 330, (3′-(4-(2,2-difluorobenzo[d][1,3]dioxol-5-yl)-2-methyloxazol-5-yl)-4′-(5-methyl-3-(trifluoromethyl)-1H-pyrazol-1-yl)-3-(methylsulfonyl)biphenyl-4-yl)methanol] | 8.30 | 64% |
| Cc1nc(-c2ccc(OC(F)(F)F)cc2)c(-c2cc(-c3cccc(S(C)(=O)=O)c3)ccc2-n2nc(C(F)(F)F)cc2C)o1 [Example 331, 2-methyl-5-(4-(5-methyl-3-(trifluoromethyl)-1H-pyrazol-1-yl)-3′-(methylsulfonyl)biphenyl-3-yl)-4-(4-(trifluoromethoxy)phenyl)oxazole] | 7.21 | 82% |
| Cc1nc(-c2ccc(OC(F)(F)F)cc2)c(-c2cc(-c3cc(F)c(CO)c(S(C)(=O)=O)c3)ccc2-n2nc(C(F)(F)F)cc2C)o1 [Example 332, (3-fluoro-4′-(5-methyl-3-(trifluoromethyl)-1H-pyrazol-1-yl)-3′-(2-methyl-4-(4-(trifluoromethoxy)phenyl)oxazol-5-yl)-5-(methylsulfonyl)biphenyl-4-yl)methanol] | 7.46 | 70% |
| Cc1nc(-c2ccc(OC(F)(F)F)cc2)c(-c2cc(-c3ccc(CO)c(S(C)(=O)=O)c3)ccc2-n2nc(C(F)(F)F)cc2C)o1 [Example 333, (4′-(5-methyl-3-(trifluoromethyl)-1H-pyrazol-1-yl)-3′-(2-methyl-4-(4-(trifluoromethoxy)phenyl)oxazol-5-yl)-3-(methylsulfonyl)biphenyl-4-yl)methanol] | 7.46 | 69% |
| Cc1nc(-c2ccc(OC(F)(F)F)cc2)c(-c2cc(-c3cc(F)cc(S(C)(=O)=O)c3)ccc2-n2ccc(C(F)(F)F)n2)o1 [Example 334, 5-(3′-fluoro-5′-(methylsulfonyl)-4-(3-(trifluoromethyl)-1H-pyrazol-1-yl)biphenyl-3-yl)-2-methyl-4-(4-(trifluoromethoxy)phenyl)oxazole] | 6.52 | 80% |
| Cc1nc(-c2ccc(OC(F)(F)F)cc2)c(-c2cc(-c3cc(F)c(CO)c(S(C)(=O)=O)c3)ccc2-n2ccc(C(F)(F)F)n2)o1 [Example 335, (3-fluoro-3′-(2-methyl-4-(4-(trifluoromethoxy)phenyl)oxazol-5-yl)-5-(methylsulfonyl)-4′-(3-(trifluoromethyl)-1H-pyrazol-1-yl)biphenyl-4-yl)methanol] | 7.54 | 71% |
| Cc1nc(-c2ccc(Cl)cc2)c(-c2cc(-c3cc(F)c(CO)c(S(C)(=O)=O)c3)ccc2-n2ccc(C(F)(F)F)n2)o1 [Example 336, (3′-(4-(4-chlorophenyl)-2-methyloxazol-5-yl)-3-fluoro-5-(methylsulfonyl)-4′-(3-(trifluoromethyl)-1H-pyrazol-1-yl)biphenyl-4-yl)methanol] | 7.48 | 75% |
| Cc1nc(-c2ccc(Cl)cc2Cl)c(-c2cc(-c3cccc(S(C)(=O)=O)c3)ccc2-n2ccc(C(F)(F)F)n2)o1 [Example 337, 4-(2,4-dichlorophenyl)-2-methyl-5-(3′-(methylsulfonyl)-4-(3-(trifluoromethyl)-1H-pyrazol-1-yl)biphenyl-3-yl)oxazole] | 6.75 | 77% |
| CS(=O)(=O)c1cccc(-c2ccc(-n3ccc(C(F)(F)F)n3)c(-c3oc(C4CC4)nc3-c3ccc(OC(F)(F)F)cc3)c2)c1 [Example 338, 2-cyclopropyl-5-(3′-(methylsulfonyl)-4-(3-(trifluoromethyl)-1H-pyrazol-1-yl)biphenyl-3-yl)-4-(4-(trifluoromethoxy)phenyl)oxazole] | 6.73 | 58% |
| CS(=O)(=O)c1cc(-c2ccc(-n3ccc(C(F)(F)F)n3)c(-c3oc(C4CC4)nc3-c3ccc(OC(F)(F)F)cc3)c2)cc(F)c1CO [Example 339, (3′-(2-cyclopropyl-4-(4-(trifluoromethoxy)phenyl)oxazol-5-yl)-3-fluoro-5-(methylsulfonyl)-4′-(3-(trifluoromethyl)-1H-pyrazol-1-yl)biphenyl-4-yl)methanol] | 7.22 | 64% |
